Test results as given in ChEMBL document CHEMBL1201862, “PubChem BioAssay data set” (2004).
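Five concentrations, 48 hours, 96-well plates. GI50 is the concentration that inhibits growth by half.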 Calls of active or inactive are those of the source. Rule as the data show it: active = GI50 up to about 1.1 µM and inactive = higher.

Assays:
Test in all cases: DTP human tumour cell line panel, 48 h
[1] = system: BT-549
[2] = system: EKVX
[3] = system: HT-29
[4] = system: IGROV-1
[5] = system: LOX IMVI
[6] = system: M14
[7] = system: Malme-3M
[8] = system: NCI-H23
[9] = system: RPMI-8226
[10] = system: RXF 393
[11] = system: SF-295
[12] = system: SF-539
[13] = system: SK-MEL-28
[14] = system: SK-MEL-5
[15] = system: SK-OV-3
[16] = system: SW-620
[17] = system: T47D
[18] = system: TK-10
[19] = system: U-251
[20] = system: UACC-62

Measured: GI50

CC12CC(=O)C3C(CCC4=CC(=O)CCC43C)C1CC=C2CC(=O)O (stereo not given)
inactive: [1] > 100 µM | [2] > 100 µM | [3] > 100 µM | [4] > 100 µM | [5] > 100 µM | [6] > 100 µM | [7] > 100 µM | [8] > 100 µM | [9] > 100 µM | [10] > 100 µM | [11] > 100 µM | [12] > 100 µM | [13] > 100 µM | [14] > 100 µM | [15] > 100 µM | [16] > 100 µM | [17] > 100 µM | [18] > 100 µM | [19] > 100 µM | [20] > 100 µM

Cc1cc2c(SCc3ccccc3Cl)nc(N)nc2nc1C
inactive: [1] > 100 µM | [2] > 100 µM | [3] > 100 µM | [4] > 100 µM | [5] > 100 µM | [6] > 100 µM | [7] > 100 µM | [8] > 100 µM | [9] > 100 µM | [10] > 100 µM | [11] 97.5 µM | [12] > 100 µM | [13] > 100 µM | [14] > 100 µM | [15] > 100 µM | [16] > 100 µM | [17] > 100 µM | [18] > 100 µM | [19] > 100 µM | [20] > 100 µM

Nc1nc(-c2cccs2)cs1
inactive: [1] 95.5 µM | [2] 43.3 µM | [3] > 100 µM | [4] 47.3 µM | [5] 79.1 µM | [6] > 100 µM | [7] > 100 µM | [8] > 100 µM | [9] 90.8 µM | [10] > 100 µM | [11] 64.4 µM | [12] > 100 µM | [13] > 100 µM | [14] 73.3 µM | [15] > 100 µM | [16] > 100 µM | [17] 66.8 µM | [18] 87.9 µM | [19] 71.3 µM | [20] 83.9 µM

N#Cc1c2c(c(Nc3ccc(F)cc3)n3c1nc1ccccc13)CCC2
inactive: [1] 7.19 µM | [2] 11.3 µM | [3] 1.87 µM | [4] 3.52 µM | [5] 2.13 µM | [6] 5.89 µM | [7] 7.41 µM | [8] 4.93 µM | [9] 2.28 µM | [10] 2.14 µM | [11] 5.05 µM | [12] 3.46 µM | [13] 9.27 µM | [14] 3.54 µM | [15] 9.93 µM | [16] 2.43 µM | [17] 7.8 µM | [18] 3.7 µM | [19] 2.84 µM | [20] 10.9 µM

COc1ccc(/C=C/C(=O)Oc2cc(O)cc(O)c2)cc1
inactive: [1] 49.8 µM | [2] 56.2 µM | [3] 29.4 µM | [4] 16.5 µM | [5] 20.1 µM | [6] 41.4 µM | [7] 36.6 µM | [8] 42.1 µM | [9] 16.3 µM | [10] 72.4 µM | [11] 23.2 µM | [12] 95.1 µM | [13] > 100 µM | [14] 52.8 µM | [15] > 100 µM | [16] 41.1 µM | [17] 43.5 µM | [18] > 100 µM | [19] 24.6 µM | [20] > 100 µM

O=C1N/C(=N/N=C/c2ccccc2)N/C1=C\c1c[nH]c2ccccc12
inactive: [1] > 100 µM | [2] 84.5 µM | [3] > 100 µM | [4] > 100 µM | [5] 44.1 µM | [6] 71.6 µM | [7] > 100 µM | [8] 95.1 µM | [9] 7.52 µM | [10] > 100 µM | [11] > 100 µM | [12] > 100 µM | [13] > 100 µM | [14] > 100 µM | [15] > 100 µM | [16] 64.4 µM | [17] > 100 µM | [18] > 100 µM | [19] 21.9 µM | [20] > 100 µM
